In ChEMBL document CHEMBL3885861, “Open TG-GATES”:

Organism: Rattus norvegicus
Test: Open TG-GATES - Regimen: Single
Type: toxicity, organism-based, Sprague-Dawley
Design: regimen Single, gender Male, age 6 weeks
Conditions: in vivo, po, route gavage; for gamma-GTP / ALP / ALT / AST / BUN / CRE / Ca / Cl / DBIL / GLC / IP / K / LDH / PL / RALB / TBIL / TC / TP / Na: tissue Plasma; for APTT / Bas / Eos / Fbg / Hb / Ht / Lym / MCH / MCHC / MCV / Mono / PT / Plat / RBC / Ret / WBC: tissue Blood; for KIDNEY_L / KIDNEY_R / KIDNEY_TOTAL: tissue Kidney; for LIVER: tissue Liver
[1] = 10 mg/kg, 24 h, dose level High

C#C[C@]1(O)CC[C@H]2[C@@H]3CCc4cc(O)ccc4[C@H]3CC[C@@]21C [ETHINYL ESTRADIOL]
gamma-GTP (3 mg/kg, 24 h, dose level Middle): 1 IU/L
TERMINAL_BW (10 mg/kg, 3 h, dose level High): 198.2 g
APTT (10 mg/kg, 3 h, dose level High): 15.3 s
Bas (10 mg/kg, 3 h, dose level High): 0%
Eos (10 mg/kg, 3 h, dose level High): 0.8%
Fbg (10 mg/kg, 3 h, dose level High): 270.4 mg/dL
Hb (10 mg/kg, 3 h, dose level High): 13 g/dL
Ht (10 mg/kg, 3 h, dose level High): 39.6%
Lym (10 mg/kg, 3 h, dose level High): 78.6%
MCH (10 mg/kg, 3 h, dose level High): 21.4 pg
MCHC (10 mg/kg, 3 h, dose level High): 32.9%
MCV (10 mg/kg, 3 h, dose level High): 65.2 fL
Mono (10 mg/kg, 3 h, dose level High): 3%
PT (10 mg/kg, 3 h, dose level High): 12.2 s
Plat (10 mg/kg, 3 h, dose level High): 115.1 x10_4/uL
RBC (10 mg/kg, 3 h, dose level High): 608.4 x10_4/ul
Ret (10 mg/kg, 3 h, dose level High): 9.5%
WBC (10 mg/kg, 3 h, dose level High): 93.6 x10_2/uL
KIDNEY_L (10 mg/kg, 3 h, dose level High): 0.9 g
KIDNEY_R (10 mg/kg, 3 h, dose level High): 0.9 g
KIDNEY_TOTAL (10 mg/kg, 3 h, dose level High): 1.8 g
LIVER (10 mg/kg, 3 h, dose level High): 8.6 g
ALP (10 mg/kg, 3 h, dose level High): 1437.2 IU/L
ALT (10 mg/kg, 3 h, dose level High): 44 IU/L
AST (10 mg/kg, 3 h, dose level High): 74 IU/L
BUN (10 mg/kg, 3 h, dose level High): 9.8 mg/dL
CRE (10 mg/kg, 3 h, dose level High): 0.2 mg/dL
Ca (10 mg/kg, 3 h, dose level High): 11.2 mg/dL
Cl (10 mg/kg, 3 h, dose level High): 105.8 meq/L
DBIL (10 mg/kg, 3 h, dose level High): 0.016 mg/dL
GLC (10 mg/kg, 3 h, dose level High): 182.8 mg/dL
IP (10 mg/kg, 3 h, dose level High): 9.7 mg/dL
K (10 mg/kg, 3 h, dose level High): 4 meq/L
LDH (10 mg/kg, 3 h, dose level High): 55 IU/L
PL (10 mg/kg, 3 h, dose level High): 139.8 mg/dL
RALB (10 mg/kg, 3 h, dose level High): 2.5 g/dL
TBIL (10 mg/kg, 3 h, dose level High): 0.044 mg/dL
TC (10 mg/kg, 3 h, dose level High): 73.4 mg/dL
TP (10 mg/kg, 3 h, dose level High): 5.3 g/dL
gamma-GTP (10 mg/kg, 3 h, dose level High): 1 IU/L
TERMINAL_BW (10 mg/kg, 6 h, dose level High): 197 g
APTT (10 mg/kg, 6 h, dose level High): 16.9 s
Bas (10 mg/kg, 6 h, dose level High): 0%
Eos (10 mg/kg, 6 h, dose level High): 1%
Fbg (10 mg/kg, 6 h, dose level High): 255.2 mg/dL
Hb (10 mg/kg, 6 h, dose level High): 12.8 g/dL
Lym (10 mg/kg, 6 h, dose level High): 72%
MCHC (10 mg/kg, 6 h, dose level High): 33.7%
MCV (10 mg/kg, 6 h, dose level High): 63 fL
PT (10 mg/kg, 6 h, dose level High): 12.5 s
Plat (10 mg/kg, 6 h, dose level High): 110.6 x10_4/uL
RBC (10 mg/kg, 6 h, dose level High): 605.4 x10_4/ul
Ret (10 mg/kg, 6 h, dose level High): 9.4%
WBC (10 mg/kg, 6 h, dose level High): 71.5 x10_2/uL
KIDNEY_L (10 mg/kg, 6 h, dose level High): 0.9 g
KIDNEY_R (10 mg/kg, 6 h, dose level High): 0.9 g
KIDNEY_TOTAL (10 mg/kg, 6 h, dose level High): 1.8 g
LIVER (10 mg/kg, 6 h, dose level High): 8 g
ALP (10 mg/kg, 6 h, dose level High): 1644.6 IU/L
ALT (10 mg/kg, 6 h, dose level High): 39.6 IU/L
AST (10 mg/kg, 6 h, dose level High): 78.6 IU/L
BUN (10 mg/kg, 6 h, dose level High): 7.6 mg/dL
CRE (10 mg/kg, 6 h, dose level High): 0.2 mg/dL
Ca (10 mg/kg, 6 h, dose level High): 10.7 mg/dL
Cl (10 mg/kg, 6 h, dose level High): 108.8 meq/L
DBIL (10 mg/kg, 6 h, dose level High): 0.018 mg/dL
IP (10 mg/kg, 6 h, dose level High): 10.5 mg/dL
LDH (10 mg/kg, 6 h, dose level High): 42.8 IU/L
Na (10 mg/kg, 6 h, dose level High): 145 meq/L
PL (10 mg/kg, 6 h, dose level High): 115.6 mg/dL
RALB (10 mg/kg, 6 h, dose level High): 2.6 g/dL
TBIL (10 mg/kg, 6 h, dose level High): 0.042 mg/dL
TC (10 mg/kg, 6 h, dose level High): 58.8 mg/dL
TP (10 mg/kg, 6 h, dose level High): 5.4 g/dL
gamma-GTP (10 mg/kg, 6 h, dose level High): 1 IU/L
TERMINAL_BW (10 mg/kg, 9 h, dose level High): 194.6 g
APTT (10 mg/kg, 9 h, dose level High): 15.5 s
Bas (10 mg/kg, 9 h, dose level High): 0.2%
Eos (10 mg/kg, 9 h, dose level High): 1%
Fbg (10 mg/kg, 9 h, dose level High): 262.8 mg/dL
Hb (10 mg/kg, 9 h, dose level High): 13.1 g/dL
Ht (10 mg/kg, 9 h, dose level High): 39%
Lym (10 mg/kg, 9 h, dose level High): 72%
MCH (10 mg/kg, 9 h, dose level High): 21.6 pg
MCHC (10 mg/kg, 9 h, dose level High): 33.6%
MCV (10 mg/kg, 9 h, dose level High): 64.5 fL
PT (10 mg/kg, 9 h, dose level High): 12.8 s
Plat (10 mg/kg, 9 h, dose level High): 104.1 x10_4/uL
RBC (10 mg/kg, 9 h, dose level High): 606 x10_4/ul
Ret (10 mg/kg, 9 h, dose level High): 8.6%
WBC (10 mg/kg, 9 h, dose level High): 82.4 x10_2/uL
KIDNEY_L (10 mg/kg, 9 h, dose level High): 0.9 g
KIDNEY_R (10 mg/kg, 9 h, dose level High): 0.8 g
KIDNEY_TOTAL (10 mg/kg, 9 h, dose level High): 1.7 g
LIVER (10 mg/kg, 9 h, dose level High): 7.2 g
ALP (10 mg/kg, 9 h, dose level High): 1741.8 IU/L
ALT (10 mg/kg, 9 h, dose level High): 40.8 IU/L
AST (10 mg/kg, 9 h, dose level High): 76.8 IU/L
BUN (10 mg/kg, 9 h, dose level High): 8 mg/dL
CRE (10 mg/kg, 9 h, dose level High): 0.2 mg/dL
Ca (10 mg/kg, 9 h, dose level High): 10.5 mg/dL
Cl (10 mg/kg, 9 h, dose level High): 109 meq/L
DBIL (10 mg/kg, 9 h, dose level High): 0.018 mg/dL
GLC (10 mg/kg, 9 h, dose level High): 188.2 mg/dL
IP (10 mg/kg, 9 h, dose level High): 10.1 mg/dL
K (10 mg/kg, 9 h, dose level High): 3.7 meq/L
LDH (10 mg/kg, 9 h, dose level High): 40.6 IU/L
Na (10 mg/kg, 9 h, dose level High): 146 meq/L
PL (10 mg/kg, 9 h, dose level High): 90.6 mg/dL
RALB (10 mg/kg, 9 h, dose level High): 2.4 g/dL
TBIL (10 mg/kg, 9 h, dose level High): 0.046 mg/dL
TC (10 mg/kg, 9 h, dose level High): 41.6 mg/dL
TP (10 mg/kg, 9 h, dose level High): 5.2 g/dL
TERMINAL_BW [1]: 197.9 g
Bas [1]: 0%
Eos [1]: 1%
Fbg [1]: 203.8 mg/dL
Hb [1]: 12.9 g/dL
Ht [1]: 38%
Lym [1]: 78.4%
MCH [1]: 22 pg
MCHC [1]: 34%
MCV [1]: 64.6 fL
Mono [1]: 4.4%
Plat [1]: 110.8 x10_4/uL
RBC [1]: 589.2 x10_4/ul
Ret [1]: 8.5%
WBC [1]: 92.3 x10_2/uL
KIDNEY_L [1]: 0.9 g
KIDNEY_R [1]: 0.9 g
KIDNEY_TOTAL [1]: 1.8 g
LIVER [1]: 9.4 g
ALP [1]: 1883.2 IU/L
ALT [1]: 42.8 IU/L
AST [1]: 71.6 IU/L
BUN [1]: 9 mg/dL
CRE [1]: 0.2 mg/dL
Ca [1]: 10.7 mg/dL
Cl [1]: 108.8 meq/L
DBIL [1]: 0.018 mg/dL
IP [1]: 7 mg/dL
K [1]: 4 meq/L
LDH [1]: 54.6 IU/L
PL [1]: 86.6 mg/dL
RALB [1]: 2.5 g/dL
TBIL [1]: 0.042 mg/dL
TC [1]: 32.4 mg/dL
TP [1]: 5.2 g/dL
gamma-GTP [1]: 1 IU/L
